Patent US12144795B2, “Cannabidiol compositions having modified cannabinoid profiles” (priority 2018, dated 2024)

Assay: Stability studies of CBD prepared via Protocol 3 (crude, pure, 2x recrystallized; 5° C., 25° C./60% RH, 40° C./75% RH)
Assay type: physicochemical

With C=C(C)[C@@H]1CCC(C)=C[C@H]1c1c(O)cc(CCCCC)cc1O [Pure CBD (Recrystallized Twice)] the “Related substances by HPLC (low level): Δ9-Tetrahydrocannabinol” value (25° C./60% RH, 0 month) was 11 ppm, the “Water content in % w/w” value (25° C./60% RH, 0 month) was <0.05% and the Appearance (25° C./60% RH, 1 month) was “Off-White”. The “Assay by HPLC” value (25° C./60% RH, 1 month) was 100.2%, the Each unspecified impurity (25° C./60% RH, 1 month) was <0.03% (ND) and the “Related substances by HPLC (low level): Δ8-Tetrahydrocannabinol” value (25° C./60% RH, 1 month) was 9 ppm. The “Related substances by HPLC (low level): Δ9-Tetrahydrocannabinol” value (25° C./60% RH, 1 month) was 6 ppm, the “Related substances by HPLC: 4-Monobromo-CBD” value (25° C./60% RH, 1 month) was <0.03% (ND) and the “Related substances by HPLC: Olivetol” value (25° C./60% RH, 1 month) was <0.03% (ND). For the same molecule, the “Related substances by HPLC: Sum of impurities, ≥0.05%” value (“Related substances by HPLC … ≥0.05%” below) (25° C./60% RH, 1 month) was <0.05% (ND), the “Related substances by HPLC: Δ8-Tetrahydrocannabinol” value (25° C./60% RH, 1 month) was <0.02% (ND) and the “Related substances by HPLC: Δ9-Tetrahydrocannabinol” value (25° C./60% RH, 1 month) was <0.02% (ND). For the same molecule, the Appearance (25° C./60% RH, 2 months) was “Oft-White”, the “Assay by HPLC” value (25° C./60% RH, 2 months) was 99.9% and the Each unspecified impurity (25° C./60% RH, 2 months) was <0.03% (ND). For the same molecule, the “Related substances by HPLC (low level): Δ8-Tetrahydrocannabinol” value (25° C./60% RH, 2 months) was 7 ppm, the “Related substances by HPLC (low level): Δ9-Tetrahydrocannabinol” value (25° C./60% RH, 2 months) was 4 ppm and the “Related substances by HPLC: 4-Monobromo-CBD” value (25° C./60% RH, 2 months) was <0.03% (ND). The “Related substances by HPLC: Olivetol” value (25° C./60% RH, 2 months) was <0.03% (ND), the “Related substances by HPLC … ≥0.05%” value (25° C./60% RH, 2 months) was <0.05% (ND) and the “Related substances by HPLC: Δ8-Tetrahydrocannabinol” value (25° C./60% RH, 2 months) was <0.02% (ND). The “Related substances by HPLC: Δ9-Tetrahydrocannabinol” value (25° C./60% RH, 2 months) was <0.02% (ND), the Appearance (25° C./60% RH, 3 months) was “White” and the “Assay by HPLC” value (25° C./60% RH, 3 months) was 98.4%. For the same molecule, the “Each unspecified impurity: RRT~1.980” value (25° C./60% RH, 3 months) was “RRT~1.980: 0.03%”, the “Related substances by HPLC (low level): Δ8-Tetrahydrocannabinol” value (25° C./60% RH, 3 months) was 13 ppm and the “Related substances by HPLC (low level): Δ9-Tetrahydrocannabinol” value (25° C./60% RH, 3 months) was <4 ppm. For the same molecule, the “Related substances by HPLC: 4-Monobromo-CBD” value (25° C./60% RH, 3 months) was <0.03% (ND), the “Related substances by HPLC: Olivetol” value (25° C./60% RH, 3 months) was <0.03% (ND) and the “Related substances by HPLC … ≥0.05%” value (25° C./60% RH, 3 months) was <0.05%. For the same molecule, the “Related substances by HPLC: Δ8-Tetrahydrocannabinol” value (25° C./60% RH, 3 months) was <0.02% (ND), the “Related substances by HPLC: Δ9-Tetrahydrocannabinol” value (25° C./60% RH, 3 months) was <0.02% (ND) and the “Related substances by HPLC (low level): Δ9-Tetrahydrocannabinol” value (40° C./75% RH, 0 month) was 11 ppm. For the same molecule, the “Water content in % w/w” value (40° C./75% RH, 0 month) was <0.05%, the Appearance (40° C./75% RH, 1 month) was “Off-White” and the “Assay by HPLC” value (40° C./75% RH, 1 month) was 99.5%. For the same molecule, the Each unspecified impurity (40° C./75% RH, 1 month) was <0.03% (ND), the “Related substances by HPLC (low level): Δ8-Tetrahydrocannabinol” value (40° C./75% RH, 1 month) was 6 ppm and the “Related substances by HPLC (low level): Δ9-Tetrahydrocannabinol” value (40° C./75% RH, 1 month) was 4 ppm. The “Related substances by HPLC: 4-Monobromo-CBD” value (40° C./75% RH, 1 month) was <0.03% (ND), the “Related substances by HPLC: Olivetol” value (40° C./75% RH, 1 month) was <0.03% (ND) and the “Related substances by HPLC … ≥0.05%” value (40° C./75% RH, 1 month) was <0.05% (ND). For the same molecule, the “Related substances by HPLC: Δ8-Tetrahydrocannabinol” value (40° C./75% RH, 1 month) was <0.02% (ND), the “Related substances by HPLC: Δ9-Tetrahydrocannabinol” value (40° C./75% RH, 1 month) was <0.02% (ND) and the Appearance (40° C./75% RH, 2 months) was “Off-White”. For the same molecule, the “Assay by HPLC” value (40° C./75% RH, 2 months) was 101.7%, the Each unspecified impurity (40° C./75% RH, 2 months) was <0.03% (ND) and the “Related substances by HPLC (low level): Δ8-Tetrahydrocannabinol” value (40° C./75% RH, 2 months) was 6 ppm. For the same molecule, the “Related substances by HPLC (low level): Δ9-Tetrahydrocannabinol” value (40° C./75% RH, 2 months) was <4 ppm (3 ppm), the “Related substances by HPLC: 4-Monobromo-CBD” value (40° C./75% RH, 2 months) was <0.03% (ND) and the “Related substances by HPLC: Olivetol” value (40° C./75% RH, 2 months) was <0.03% (ND). For the same molecule, the “Related substances by HPLC … ≥0.05%” value (40° C./75% RH, 2 months) was <0.05% (ND), the “Related substances by HPLC: Δ8-Tetrahydrocannabinol” value (40° C./75% RH, 2 months) was <0.02% (ND) and the “Related substances by HPLC: Δ9-Tetrahydrocannabinol” value (40° C./75% RH, 2 months) was <0.02% (ND). For the same molecule, the Appearance (40° C./75% RH, 3 months) was “Off-white”, the “Assay by HPLC” value (40° C./75% RH, 3 months) was 99.4% and the “Each unspecified impurity: RRT~1.981” value (40° C./75% RH, 3 months) was 0.03%. The “Related substances by HPLC (low level): Δ8-Tetrahydrocannabinol” value (40° C./75% RH, 3 months) was 14 ppm, the “Related substances by HPLC (low level): Δ9-Tetrahydrocannabinol” value (40° C./75% RH, 3 months) was <4 ppm and the “Related substances by HPLC: 4-Monobromo-CBD” value (40° C./75% RH, 3 months) was <0.03% (ND). For the same molecule, the “Related substances by HPLC: Olivetol” value (40° C./75% RH, 3 months) was <0.03% (ND), the “Related substances by HPLC … ≥0.05%” value (40° C./75% RH, 3 months) was <0.05% and the “Related substances by HPLC: Δ8-Tetrahydrocannabinol” value (40° C./75% RH, 3 months) was <0.02% (ND). The “Related substances by HPLC: Δ9-Tetrahydrocannabinol” value (40° C./75% RH, 3 months) was <0.02% (ND), the Appearance (40° C./75% RH, 5 months) was “Off-white” and the “Assay by HPLC” value (40° C./75% RH, 5 months) was 98.9%. For the same molecule, the “Each unspecified impurity: RRT~0.956” value (40° C./75% RH, 5 months) was 0.04%, the “Related substances by HPLC (low level): Δ8-Tetrahydrocannabinol” value (40° C./75% RH, 5 months) was 21 ppm and the “Related substances by HPLC (low level): Δ9-Tetrahydrocannabinol” value (40° C./75% RH, 5 months) was <4 ppm. For the same molecule, the “Related substances by HPLC: 4-Monobromo-CBD” value (40° C./75% RH, 5 months) was <0.03% (ND), the “Related substances by HPLC: Olivetol” value (40° C./75% RH, 5 months) was <0.03% (ND) and the “Related substances by HPLC … ≥0.05%” value (40° C./75% RH, 5 months) was <0.05%. The “Related substances by HPLC: Δ8-Tetrahydrocannabinol” value (40° C./75% RH, 5 months) was <0.02% (ND) and the “Related substances by HPLC: Δ9-Tetrahydrocannabinol” value (40° C./75% RH, 5 months) was <0.02% (ND).
